Test results published in ChEMBL document CHEMBL1201862, “PubChem BioAssay data set” (2004).
Activity calls are given as the source filed them.

How the values were obtained:
[1] = biological target: Voltage-dependent T-type calcium channel subunit alpha-1H (Homo sapiens, UniProt O95180); format: functional;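 further: channel activity triggered by adding a high calcium stimulation buffer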
[2] = microbe, parasite or virus in culture; format: functional; details: Mycobacterium tuberculosis
[3] = viability of PTEN-deleted HCT116 cells – cell-based, HCT116 PTEN knockout, dose response (AID 1047); format: functional;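 further: HCT116 colon tumor cells with PTEN knocked out; cells exposed to compound for 60 hours before readout; potency for loss of cell viability measured by luminescence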
[4] = viability of HCT116 lacking mutant beta-catenin – cell-based, human colon tumor, dose response (AID 1045); format: functional;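 further: HCT116 colon tumor cells with beta catenin knocked out; cells exposed to compound for 60 hours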
[5] = Trypanosoma cruzi growth suppression in host cells – NIH3T3 host cells, beta-gal luminescence, confirmation (AID 2044); format: functional, cell-based;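 further: intracellular parasites grown in NIH/3T3 mouse fibroblasts as host cells; luminescent beta-galactosidase reporter signal from transgenic T. cruzi replicating inside host cells; inhibitors lower the luminescence signal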
[6] = NIH3T3 cell viability loss – ATP luminescence, mouse fibroblasts, counter-screen, dose response (AID 2010); format: functional, cell-based;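 further: cells exposed to compound for about 90 hours before reading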
[7] = reduction of Shn3 3'UTR-driven luciferase in osteoblasts – cell-based, Clone20 osteoblasts, firefly luciferase, cherry-picked, dose response (AID 624132); format: functional;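 further: firefly luciferase luminescence from reporter carrying the Shn3 3'UTR in osteoblasts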
[8] = loss of viability in HepG2 cells – cell-based, CellTiter-Glo, cherry-picked, cytotoxicity control for Shn3 inhibitor project, dose response (AID 624134); format: functional
[9] = non-specific 3'UTR reporter inhibition in Clone20-Shn3RL – cell-based, Renilla luciferase, cherry-picked, counter-screen for Shn3 inhibitor project, dose response (AID 624133); format: functional
[10] = biological target: T1, DNA repair protein RAD52 homolog (Homo sapiens, UniProt P43351); format: functional, biochemical
T1 sequence (P43351 whole entry): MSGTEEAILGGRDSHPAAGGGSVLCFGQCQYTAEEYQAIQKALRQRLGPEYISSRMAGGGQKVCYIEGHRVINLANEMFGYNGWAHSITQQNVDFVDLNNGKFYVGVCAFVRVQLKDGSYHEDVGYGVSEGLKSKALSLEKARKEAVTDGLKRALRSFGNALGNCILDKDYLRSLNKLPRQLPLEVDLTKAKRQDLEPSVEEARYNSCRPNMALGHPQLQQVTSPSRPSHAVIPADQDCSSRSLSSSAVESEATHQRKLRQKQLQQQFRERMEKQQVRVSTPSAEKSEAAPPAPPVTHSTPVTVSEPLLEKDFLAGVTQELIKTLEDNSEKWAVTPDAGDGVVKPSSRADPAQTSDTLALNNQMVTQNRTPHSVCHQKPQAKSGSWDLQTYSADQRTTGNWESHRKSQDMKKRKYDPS

[11] = biological target: T2, Polyadenylate-binding protein 1 (Homo sapiens, UniProt P11940); assay: MLLE binding blockers, Cy5 peptide tracer – biochemical, fluorescence polarization, Cy5-PAM2 peptide, secondary, miRNA deadenylation inhibitor project, dose response (AID 602260); format: functional; details: read-out: IC50_Mean
[12] = biological target: T2, Polyadenylate-binding protein 1; assay: MLLE domain peptide-binding blockers, IC50 – biochemical, fluorescence polarization, FITC-PAM2 peptide, dose response (AID 602259); format: functional; details: read-out: IC50_Mean
Large T antigen = Large T antigen (Simian virus 40, UniProt P03070); format: functional, Betapolyomavirus macacae;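 further: Confirmatory-stage PubChem screen for compounds that inhibit SV40 T antigen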
[13] = biological target: FAD-linked sulfhydryl oxidase ALR (Homo sapiens, UniProt P55789); assay: ALR-catalysed DTT oxidation blockers – biochemical, H2O2 detection, luminescence, cherry-pick, dose response (AID 493248)
Protein skinhead-1 = biological target: T3, Protein skinhead-1 (Caenorhabditis elegans, UniProt P34707); format: functional
T3 sequence (P34707 whole entry): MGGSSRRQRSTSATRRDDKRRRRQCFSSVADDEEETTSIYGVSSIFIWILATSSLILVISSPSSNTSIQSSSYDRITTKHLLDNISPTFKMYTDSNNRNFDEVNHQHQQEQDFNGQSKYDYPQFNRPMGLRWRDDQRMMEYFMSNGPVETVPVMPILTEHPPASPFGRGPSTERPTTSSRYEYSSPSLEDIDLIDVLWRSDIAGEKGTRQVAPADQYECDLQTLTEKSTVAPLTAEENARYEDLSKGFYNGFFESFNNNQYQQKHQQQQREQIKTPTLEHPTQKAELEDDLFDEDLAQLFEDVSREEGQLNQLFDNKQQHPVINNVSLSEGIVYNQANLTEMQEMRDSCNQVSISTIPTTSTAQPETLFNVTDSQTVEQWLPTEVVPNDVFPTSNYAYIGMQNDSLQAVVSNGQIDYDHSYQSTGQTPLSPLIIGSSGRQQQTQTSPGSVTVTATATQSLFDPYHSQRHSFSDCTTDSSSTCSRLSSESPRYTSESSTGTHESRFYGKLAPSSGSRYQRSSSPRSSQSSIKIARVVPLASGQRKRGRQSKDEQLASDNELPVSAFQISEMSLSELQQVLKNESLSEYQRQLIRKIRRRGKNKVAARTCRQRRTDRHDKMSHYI

[14] = Luminescence Cell-Based Dose Retest to Confirm Inhibitors of Cancer Stem Cells. [Related pubchem assays (depositor defined):AID2717, AID2721]; format: functional; details: Homo sapiens
[15] = intracellular Trypanosoma cruzi inhibitors in host cells – cell-based, plate reader, cherry-pick samples, set 3, dose response (AID 651818); format: functional;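 further: compounds incubated with infected cells for about four days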
[16] = blockers of HIV-1 envelope-mediated cell-cell fusion – cherry-pick, dose response (AID 652057); format: functional, cell-based
[17] = HIV-1 AD8 envelope cell-cell fusion blockers – cherry-pick, dose response (AID 652062); format: functional, cell-based;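 further: luciferase signal from cell-cell fusion driven by HIV-1 clade B AD8 Env; potency is for inhibitors of fusion seen as a drop in luminescence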
[18] = blockers of HIV-1 ZM109 envelope-driven cell-cell fusion – HeLa effector, CEM target cells, luciferase, cherry-pick, dose response (AID 652058); format: functional, cell-based;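 further: luciferase signal from HIV-1 Env mediated cell-cell fusion of effector and target cells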
Fatty acid synthase [19] = biological target: T4, Fatty acid synthase (Homo sapiens, UniProt P49327); assay: inhibition of human FAS-TE enzyme activity – biochemical, endpoint fluorescence intensity, uHTS hits, dose response (AID 624327); format: functional;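 further: fluorescence from hydrolysis of an O-methyl fluorescein acyl ester substrate by the enzyme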
Fatty acid synthase [20] = biological target: T4, Fatty acid synthase; assay: inhibition of human FAS-TE enzyme activity – biochemical, kinetic fluorescence intensity, dose response (AID 624326); format: functional;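 further: rate of fluorescence rise from hydrolysis of a fluorogenic O-methyl fluorescein ester substrate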
Cytochrome P450 1A2 = biological target: T5, Cytochrome P450 1A2 (Homo sapiens, UniProt P05177);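 further: PubChem cytochrome P450 panel assay, CYP1A2 panel member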
T5 sequence (P05177 whole entry): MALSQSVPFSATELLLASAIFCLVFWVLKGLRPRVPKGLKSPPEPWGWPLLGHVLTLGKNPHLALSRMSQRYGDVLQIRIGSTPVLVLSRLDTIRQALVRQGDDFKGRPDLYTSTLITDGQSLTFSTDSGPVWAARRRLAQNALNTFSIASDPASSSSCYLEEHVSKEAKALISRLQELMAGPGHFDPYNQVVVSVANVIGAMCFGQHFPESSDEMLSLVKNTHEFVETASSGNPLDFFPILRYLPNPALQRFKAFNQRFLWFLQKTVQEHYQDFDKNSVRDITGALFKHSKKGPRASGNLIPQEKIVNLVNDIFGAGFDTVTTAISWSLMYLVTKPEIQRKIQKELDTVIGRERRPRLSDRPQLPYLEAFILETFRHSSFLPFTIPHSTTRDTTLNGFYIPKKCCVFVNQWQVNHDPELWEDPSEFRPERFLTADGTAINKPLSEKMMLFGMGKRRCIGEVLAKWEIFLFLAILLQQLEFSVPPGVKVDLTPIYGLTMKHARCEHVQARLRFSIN

Cytochrome P450 3A4 = Cytochrome P450 3A4 (Homo sapiens, UniProt P08684);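 further: CYP3A4 tested as one member of a cytochrome P450 panel screen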
Sequence of Cytochrome P450 3A4 (P08684 whole entry): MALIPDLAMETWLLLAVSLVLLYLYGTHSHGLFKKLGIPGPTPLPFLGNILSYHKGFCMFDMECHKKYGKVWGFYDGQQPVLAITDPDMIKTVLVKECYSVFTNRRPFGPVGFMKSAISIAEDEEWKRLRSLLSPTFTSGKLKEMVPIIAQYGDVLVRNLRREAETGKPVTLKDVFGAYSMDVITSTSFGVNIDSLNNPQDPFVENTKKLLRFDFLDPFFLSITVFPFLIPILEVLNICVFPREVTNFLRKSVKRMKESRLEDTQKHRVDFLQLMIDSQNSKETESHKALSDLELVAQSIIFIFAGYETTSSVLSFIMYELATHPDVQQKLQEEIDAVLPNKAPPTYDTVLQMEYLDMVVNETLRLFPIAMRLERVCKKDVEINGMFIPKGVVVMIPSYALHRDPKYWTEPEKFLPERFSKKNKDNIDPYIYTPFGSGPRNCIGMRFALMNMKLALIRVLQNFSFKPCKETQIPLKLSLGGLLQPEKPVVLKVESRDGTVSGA

Sequence of Large T antigen (P03070 whole entry): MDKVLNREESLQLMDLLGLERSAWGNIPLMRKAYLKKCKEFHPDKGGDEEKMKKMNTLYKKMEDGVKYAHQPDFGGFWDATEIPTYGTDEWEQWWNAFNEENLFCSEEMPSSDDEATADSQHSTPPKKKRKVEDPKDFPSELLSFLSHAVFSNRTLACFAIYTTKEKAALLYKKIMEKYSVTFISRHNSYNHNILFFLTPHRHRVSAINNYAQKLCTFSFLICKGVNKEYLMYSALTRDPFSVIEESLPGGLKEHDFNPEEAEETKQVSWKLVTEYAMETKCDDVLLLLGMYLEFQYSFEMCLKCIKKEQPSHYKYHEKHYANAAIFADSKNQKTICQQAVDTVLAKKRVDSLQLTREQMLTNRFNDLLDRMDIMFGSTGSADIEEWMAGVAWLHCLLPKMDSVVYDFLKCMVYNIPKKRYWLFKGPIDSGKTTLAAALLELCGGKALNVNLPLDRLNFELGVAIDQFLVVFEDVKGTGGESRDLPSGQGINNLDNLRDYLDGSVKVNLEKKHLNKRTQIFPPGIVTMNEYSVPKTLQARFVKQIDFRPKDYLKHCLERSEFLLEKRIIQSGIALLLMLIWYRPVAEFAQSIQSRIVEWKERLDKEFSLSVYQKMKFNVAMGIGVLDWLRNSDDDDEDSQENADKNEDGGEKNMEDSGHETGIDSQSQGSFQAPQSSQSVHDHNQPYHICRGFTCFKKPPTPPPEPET
T2 sequence (P11940 whole entry, the tested form may be a part): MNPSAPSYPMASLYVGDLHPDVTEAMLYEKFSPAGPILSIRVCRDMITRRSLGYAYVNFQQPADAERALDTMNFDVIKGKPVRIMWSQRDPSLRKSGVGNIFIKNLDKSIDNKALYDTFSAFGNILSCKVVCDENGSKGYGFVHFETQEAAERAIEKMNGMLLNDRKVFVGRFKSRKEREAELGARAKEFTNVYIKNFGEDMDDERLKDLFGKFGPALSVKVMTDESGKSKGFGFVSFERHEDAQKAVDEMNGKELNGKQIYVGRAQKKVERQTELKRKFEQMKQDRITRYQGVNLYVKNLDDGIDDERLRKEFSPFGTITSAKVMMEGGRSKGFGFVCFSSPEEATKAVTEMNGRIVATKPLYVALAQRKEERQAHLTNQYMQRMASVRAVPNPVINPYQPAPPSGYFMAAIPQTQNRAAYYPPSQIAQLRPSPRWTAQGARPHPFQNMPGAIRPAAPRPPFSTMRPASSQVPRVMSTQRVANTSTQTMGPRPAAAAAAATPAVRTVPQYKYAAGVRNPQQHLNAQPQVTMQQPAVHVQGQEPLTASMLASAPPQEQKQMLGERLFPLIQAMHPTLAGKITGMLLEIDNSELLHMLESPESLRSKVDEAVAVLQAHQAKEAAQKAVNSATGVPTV
Sequence of Voltage-dependent T-type calcium channel subunit alpha-1H (O95180 whole entry): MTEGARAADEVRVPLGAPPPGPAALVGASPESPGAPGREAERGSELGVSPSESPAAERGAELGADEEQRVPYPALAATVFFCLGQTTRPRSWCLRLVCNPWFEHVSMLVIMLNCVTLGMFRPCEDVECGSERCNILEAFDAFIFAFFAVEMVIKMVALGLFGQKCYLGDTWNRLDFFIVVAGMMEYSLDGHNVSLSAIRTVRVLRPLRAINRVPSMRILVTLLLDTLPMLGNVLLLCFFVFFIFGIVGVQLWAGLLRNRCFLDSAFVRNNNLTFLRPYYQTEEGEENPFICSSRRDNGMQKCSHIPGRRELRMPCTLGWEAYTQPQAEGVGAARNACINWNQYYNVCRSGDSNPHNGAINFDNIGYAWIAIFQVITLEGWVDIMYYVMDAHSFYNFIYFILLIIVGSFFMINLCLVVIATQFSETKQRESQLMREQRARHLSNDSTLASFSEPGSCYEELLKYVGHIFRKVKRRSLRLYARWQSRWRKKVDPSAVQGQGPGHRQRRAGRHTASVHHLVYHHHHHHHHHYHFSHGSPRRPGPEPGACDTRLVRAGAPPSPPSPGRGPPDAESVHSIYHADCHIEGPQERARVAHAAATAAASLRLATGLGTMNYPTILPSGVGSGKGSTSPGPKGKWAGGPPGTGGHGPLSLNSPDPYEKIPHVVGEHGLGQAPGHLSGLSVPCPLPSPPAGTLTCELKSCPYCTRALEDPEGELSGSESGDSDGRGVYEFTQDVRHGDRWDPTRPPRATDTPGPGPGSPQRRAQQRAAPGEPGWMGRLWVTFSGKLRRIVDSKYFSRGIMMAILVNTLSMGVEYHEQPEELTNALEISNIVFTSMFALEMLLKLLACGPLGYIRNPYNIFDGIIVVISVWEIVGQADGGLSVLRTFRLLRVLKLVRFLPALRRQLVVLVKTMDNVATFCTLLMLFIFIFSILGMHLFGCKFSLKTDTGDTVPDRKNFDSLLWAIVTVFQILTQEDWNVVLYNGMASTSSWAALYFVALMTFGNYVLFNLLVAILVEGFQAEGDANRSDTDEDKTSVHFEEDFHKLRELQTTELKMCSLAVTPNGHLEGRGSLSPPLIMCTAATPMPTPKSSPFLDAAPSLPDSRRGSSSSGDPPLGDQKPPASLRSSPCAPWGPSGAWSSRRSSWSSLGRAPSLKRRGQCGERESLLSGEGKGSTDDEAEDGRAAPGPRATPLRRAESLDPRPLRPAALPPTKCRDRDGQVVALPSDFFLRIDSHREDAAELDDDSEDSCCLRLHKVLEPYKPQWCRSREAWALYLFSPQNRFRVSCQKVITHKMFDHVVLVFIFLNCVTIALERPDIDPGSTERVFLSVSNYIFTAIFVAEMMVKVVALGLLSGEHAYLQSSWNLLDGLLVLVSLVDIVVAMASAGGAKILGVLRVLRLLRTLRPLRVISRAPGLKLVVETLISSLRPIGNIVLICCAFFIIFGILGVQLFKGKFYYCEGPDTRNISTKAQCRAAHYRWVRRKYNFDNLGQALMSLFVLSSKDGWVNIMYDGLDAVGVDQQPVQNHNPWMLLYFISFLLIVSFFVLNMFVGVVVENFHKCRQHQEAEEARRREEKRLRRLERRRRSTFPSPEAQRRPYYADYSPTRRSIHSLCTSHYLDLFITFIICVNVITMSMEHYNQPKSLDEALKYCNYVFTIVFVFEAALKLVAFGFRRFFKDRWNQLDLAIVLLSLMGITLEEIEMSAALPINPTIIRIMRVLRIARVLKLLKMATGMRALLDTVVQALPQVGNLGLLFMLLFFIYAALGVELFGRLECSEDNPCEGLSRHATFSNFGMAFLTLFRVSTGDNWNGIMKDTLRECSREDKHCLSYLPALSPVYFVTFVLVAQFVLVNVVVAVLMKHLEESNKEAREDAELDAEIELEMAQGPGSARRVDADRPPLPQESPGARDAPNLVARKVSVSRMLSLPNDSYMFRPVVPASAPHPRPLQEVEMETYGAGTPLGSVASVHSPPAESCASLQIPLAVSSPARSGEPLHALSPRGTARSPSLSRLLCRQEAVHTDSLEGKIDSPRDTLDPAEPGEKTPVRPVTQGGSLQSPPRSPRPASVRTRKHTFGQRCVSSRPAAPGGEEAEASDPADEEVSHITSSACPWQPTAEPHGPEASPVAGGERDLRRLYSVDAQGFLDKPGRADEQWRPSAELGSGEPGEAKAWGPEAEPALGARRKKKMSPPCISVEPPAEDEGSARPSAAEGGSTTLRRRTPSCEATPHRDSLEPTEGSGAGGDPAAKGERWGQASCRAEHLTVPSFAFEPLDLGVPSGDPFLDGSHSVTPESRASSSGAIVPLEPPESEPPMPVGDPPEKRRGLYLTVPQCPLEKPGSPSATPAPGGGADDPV
Sequence of FAD-linked sulfhydryl oxidase ALR (P55789 whole entry): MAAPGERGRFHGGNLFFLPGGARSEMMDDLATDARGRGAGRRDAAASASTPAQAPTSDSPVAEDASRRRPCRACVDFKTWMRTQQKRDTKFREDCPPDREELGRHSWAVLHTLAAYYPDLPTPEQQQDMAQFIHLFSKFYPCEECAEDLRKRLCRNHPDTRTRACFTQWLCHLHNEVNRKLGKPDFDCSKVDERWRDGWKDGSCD

O=C1c2ccccc2C(Nc2cccc(C(F)(F)F)c2)N1Cc1ccco1 (stereo not drawn)
EC50 [1]: 3.9 µM (active)

O=[N+]([O-])c1ccc(C2Oc3ccccc3C3CC(c4ccccc4)=NN32)s1 (stereo not drawn)
CC50 [2]: 31.5 µM (active)

CCCCCCCCNC(=O)c1cccnc1SCC(=O)Nc1ccc(OC)cc1OC
EC50 [3]: 12.3 µM (active) | EC50 [4]: 12.6 µM (active)

Cc1ccc(C)c(-c2nn(-c3cc(N4CCN(CCO)CC4)ccc3[N+](=O)[O-])c(=O)c3ccccc23)c1
EC50 [5]: 2.23 µM (active) | CC50 [2]: 31.4 µM (active) | EC50 [6]: > 60 µM (not active)

COc1ccc(S(=O)(=O)N2CCOC2CNC(=O)C(=O)NCCc2c[nH]c3ccccc23)cc1C (stereo not drawn)
EC50 [1]: 3.31 µM (active)

CC(C)NC(C(=O)Nc1cc(Cl)cc(Cl)c1)c1ccccc1 (stereo not drawn)
EC50 [1]: 3.62 µM (active)

Cc1ccc(Cl)cc1N1CCN(C(=O)C2CCC(=O)N(C3CCCCCC3)C2)CC1 (stereo not drawn)
CC50 [2]: > 40 µM (active) | AC50 [7]: 3.14 µM (active) | AC50 [8]: 54.8 µM (active) | AC50 [9]: 3.41 µM (active)

CN(C)CCCN(C(=O)c1ccc2c(c1)CCCC2)c1nc2c(F)cccc2s1
EC50 [5]: 0.164 µM (active) | EC50 [3]: 27 µM (active) | EC50 [6]: > 60 µM (not active) | EC50 [4]: 30 µM (active) | AC50 [10]: 35.2 µM (active)

COc1ccccc1OCC(=O)NCCNC(=O)COc1ccccc1OC
IC50 [11]: > 66 µM (inactive) | IC50 [12]: > 66 µM (inactive)

Oc1ccc(-c2cn3ccccc3n2)cc1
IC50 (Large T antigen): > 100 µM (active) | AC50 [13]: 0.097 µM (active)

CCN(CC)S(=O)(=O)c1ccc(Cc2ncc(C(F)(F)F)cc2Cl)s1
EC50 [1]: 9.84 µM (active)

CC1CCN(c2ccccc2NC(=S)NC(=O)c2ccc(-c3cccc([N+](=O)[O-])c3)o2)CC1
IC50 [11]: > 66 µM (inactive) | AC50 [7]: 3.07 µM (active) | IC50 [12]: > 66 µM (inactive) | AC50 [8]: > 70 µM (inactive) | AC50 [9]: 3.38 µM (active)

COc1ccc(NC(=O)CSc2ccccc2)cn1
IC50 [11]: 33.4 µM (inactive) | IC50 [12]: 41.7 µM (inactive)

O=C(CCc1ccc(O)c(O)c1)NN=C(S)Nc1ccc(Br)cc1Cl
IC50 (Large T antigen): > 100 µM (active)

O=C(Nc1ccccc1-c1ccccc1)c1ccc(Br)o1
EC50 [1]: 7.47 µM (active)

CCN1CCN(c2cc(N3CCc4ccccc4C3)c(F)cc2[N+](=O)[O-])CC1
EC50 [3]: 12.8 µM (active) | EC50 [4]: 12 µM (active)

Cc1c(C(=O)NCCC2=CCCCC2)oc2ccc(S(=O)(=O)N3CCOCC3)cc12
EC50 [3]: 19.2 µM (active) | EC50 [4]: 31.7 µM (active) | IC50 (Protein skinhead-1): > 100 µM (inactive)

O=C(COc1cccc(C(F)(F)F)c1)N1CCN(c2ccc(O)cc2)CC1
IC50 (Large T antigen): 9.68 µM (active) | AC50 [14]: 7.3 µM (active)

NC(=O)OCCSc1nnc(-c2cccc(C(N)=S)c2)o1
IC50 [11]: > 66 µM (inactive) | IC50 [12]: > 66 µM (inactive)

Cc1cc(C)n(CCOC(=O)C2C(C=C(Cl)Cl)C2(C)C)n1 (stereo not drawn)
EC50 [1]: 4.86 µM (active)

O=C(CN1CCN(C(=O)c2ccco2)CC1)Nc1ccc(Cl)c(C(F)(F)F)c1
EC50 [1]: 3.47 µM (active)

NCCCC[C@H]1CN=C(N)N1CCC12CC3CC(CC(C3)C1)C2
AC50 [10]: 23.3 µM (active)

C[C@@H]1CCCCO[C@@H](CN(C)Cc2ccc(Cl)c(Cl)c2)[C@@H](C)CN([C@H](C)CO)C(=O)c2cc(NC(=O)Nc3ccccc3)ccc2O1
AC50 [15]: 3.82 µM (active)

C[C@H]1CN([C@@H](C)CO)C(=O)Cc2cc(NC(=O)Cc3cn(C)c4ccccc34)ccc2O[C@@H]1CN(C)Cc1ccc(-c2ccccc2)cc1
AC50 [15]: 1.72 µM (active)

C[C@H](CO)N1C[C@H](C)[C@@H](CN(C)Cc2ccc(C(F)(F)F)cc2)Oc2c(NC(=O)NC3CCCCC3)cccc2C1=O
AC50 [15]: 3.92 µM (active)

C[C@H]1CN([C@@H](C)CO)C(=O)Cc2cc(NC(=O)Nc3ccc4c(c3)OCO4)ccc2O[C@@H]1CN(C)Cc1ccc(C(=O)Nc2ccccc2N)cc1
AC50 [15]: 2.13 µM (active)

COc1ccc(S(=O)(=O)N(C)C[C@H]2Oc3ccc(NS(=O)(=O)c4ccc(C)cc4)cc3CC(=O)N([C@H](C)CO)C[C@H]2C)cc1
AC50 [15]: 3.72 µM (active)

C[C@@H]1CN([C@H](C)CO)C(=O)Cc2cc(NC(=O)Nc3ccccc3)ccc2O[C@@H]1CN(C)Cc1ccc(Oc2ccccc2)cc1
AC50 [15]: 3.76 µM (active)

C[C@H](CO)N1C[C@H](C)[C@H](CN(C)S(=O)(=O)c2ccccc2)Oc2cc(-c3cccc(F)c3)ccc2S1(=O)=O
AC50 [16]: 11 µM (active) | AC50 [17]: 10.7 µM (active)

COc1ccc(NC(=O)Nc2ccc3c(c2)CC(=O)N([C@@H](C)CO)C[C@H](C)[C@H](CN(C)S(=O)(=O)c2cccs2)O3)cc1
AC50 [16]: 12 µM (active) | AC50 [18]: 13.2 µM (active) | AC50 [17]: 27.1 µM (active)

COc1cccc(S(=O)(=O)N(C)C[C@H]2Oc3cc(C#CCC(C)C)ccc3S(=O)(=O)N([C@@H](C)CO)C[C@H]2C)c1
AC50 [16]: 25.1 µM (active) | AC50 [18]: 10.6 µM (active) | AC50 [17]: 34.2 µM (active)

CC(C)(C)NCC(O)CON=C1c2ccccc2-c2ccccc21 (stereo not drawn)
AC50 [10]: 20.1 µM (active)

O=c1[nH]c2cc([N+](=O)[O-])c([N+](=O)[O-])cc2[nH]c1=O [DNQX]
IC50 (Fatty acid synthase [19]): 8.63 µM (active) | IC50 (Fatty acid synthase [20]): 6.88 µM (active) | AC50 (Cytochrome P450 1A2): 31.6 µM (inconclusive) | AC50 (Cytochrome P450 3A4): 25.1 µM (inconclusive)
